This experiment concerns the target T1, murine E^d MHC class II allele (Mus musculus, UniProt P01904+P01915).
T1 sequence (P01904 26-255): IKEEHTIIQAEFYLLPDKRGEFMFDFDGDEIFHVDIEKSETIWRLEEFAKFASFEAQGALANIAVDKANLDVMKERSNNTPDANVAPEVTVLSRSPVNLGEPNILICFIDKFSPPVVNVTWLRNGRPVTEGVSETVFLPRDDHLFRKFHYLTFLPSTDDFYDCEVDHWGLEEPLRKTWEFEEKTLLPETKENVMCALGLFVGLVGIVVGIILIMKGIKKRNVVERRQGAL
T1 sequence (P01915 27-264 limits assumed): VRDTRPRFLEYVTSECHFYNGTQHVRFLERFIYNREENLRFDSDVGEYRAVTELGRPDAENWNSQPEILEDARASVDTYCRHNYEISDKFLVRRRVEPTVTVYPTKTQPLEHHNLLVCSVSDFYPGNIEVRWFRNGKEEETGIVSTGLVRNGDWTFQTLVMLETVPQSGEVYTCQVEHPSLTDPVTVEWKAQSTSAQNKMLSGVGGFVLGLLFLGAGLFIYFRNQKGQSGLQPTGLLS
Briefly: antigenic peptide prepulse assay, E^d allele (fixed APC prepulsed with HEL106-116). Details: The A20 and CH27 B cell lymphoma lines express H-2^d and H-2^k alleles, respectively; endogenous in cells; host or cells: A20 B cell lymphoma (mitomycin C-treated or paraformaldehyde-fixed). Particulars: AE peptide 64 μM; for Activity in antigenic peptide prepulse assay, E^d (baseline = 1.0): Table 26. Format: cell-based. On the procedure:
In a second type of assay, the “peptide prepulse assay”, the antigenic peptide is incubated with paraformaldehyde-fixed APC for 6 h. The APC are washed and incubated for 24 h with the AE101 series homolog and the T cell hybridoma specific for the antigenic peptide. After that incubation, an aliquot of the culture supernatant is transferred to a second culture to measure the relative degree of T hybridoma stimulation, as reflected in the effect of released interleukins on the growth of an interleukin-dependent, indicator cell line, as described above.
The two above described assays measure different aspects of the molecular mechanism of the AE101 series of peptides. In the “simultaneous assay”, AE101 series peptides are thought to induce the release of endogenously bound peptides and to permit the binding of the second, specific antigenic peptide which is relatively abundant in the culture fluid. The AE101 series peptides enhance antigenic peptide-specific T cell responses in simultaneous assays. In the “peptide prepulse” assay, the specific antigenic peptide becomes bound to MHC class II molecules on the surface of the fixed APC during the 6 h prepulse incubation. The effect of the AE101 series homologs is then thought to release that antigenic peptide, resulting in an apparent suppression of the immune response.
The AE101 series peptides are thought to contact the MHC class II molecules at a discrete site outside the antigenic peptide-binding groove. AE101 peptide binding to this “Ii-KEY” site is thought to induce a conformational change in the MHC class II molecules accelerating the dissociation of previously bound antigenic peptide. […] The AE101 series peptides thus inhibit antigenic peptide-specific T cell responses in the “peptide prepulse” assays.
Antigenic peptide-specific T cell activation was measured by the following procedure. Mitomycin C-treated A20 cells (A^dE^d) or CH27 cells APC (A^kE^k) were generated by incubating 5×10^6 cells/mL for 20 min at 37° C. with 0.025 mg/mL of mitomycin C (Sigma) in Dulbecco's Modified Eaglel's Medium (DMEM)/10 mM N-2(hydroxyethylpiperazine-N″[2-ethanesulfonic acid] (HEPES), followed by two washes with four volumes of DMEM-5% fetal calf serum (FCS), 10 mM HEPES. Fixed APC were generated by treating 1×10^6 cells/mL for 5 min with 0.5% paraformaldehyde in PBS (pH 7.2), followed by two washes with four volumes of DMEM-10% FCS, 10 mM HEPES. T cell hybridomas were irradiated 2200 rads before each assay.
The “peptide prepulse assay” was carried out under essentially the same conditions as described for the “simultaneous assay” with the following modifications. Fixed APC were first incubated for 6 h at 1×10^6 cells/mL in complete DMEM-5% FCS in 24-well microculture plates (1 mL/well) with antigenic peptide, followed by four washes with 10 volumes of DMEM-5% FCS. The cells were then exposed to varying concentrations of AE101 series peptide (64 μM, 16 μM, 4 μM, and 1 μM) for 24 h in the presence of the T cell hybridoma specific to the antigenic peptide. Interleukin release from these cultures was measured by proliferation of HT-2 cells to interleukins in supernatants transferred from the primary culture. Generally, a single dose of 64 μM of each AE101 series peptide was used. The baseline T cell response was measured by culturing T hybridoma cells with the antigenic peptide-prepulsed APC in the absence of AE101 series peptides.
[…] […] Paraformaldehyde-treated APC (fixed APC) expressing MHC class II molecules were incubated with antigenic peptide for 6 h (HEL106-116 for E^d and PGCC81-104 for E^k). After this incubation, the prepulsed APC were washed and cultured with T hybridoma cells and AE101 series peptides. […] The AE101 series peptide concentrations were 64 μM for E^d and 16 μM for E^k. The dilutions of supernatant taken into the HT-2 cell assay were 1:4 for Ed and 1:2 for E^k.

The mark [1] stands for this setting: prepulse 24 μM antigenic peptide, supernatant 1:2.
[2] abbreviates: Table 22, prepulse 6 μM antigenic peptide, supernatant 1:8.
[3] abbreviates: Table 24, prepulse 24 μM antigenic peptide, supernatant 1:4.
[4] abbreviates: Table 20, prepulse 3 μM antigenic peptide, supernatant 1:2.
[5] abbreviates: Table 25, prepulse 24 μM antigenic peptide, supernatant 1:4.

The values below come from US6835382B2, “Ii peptide therapeutics to enhance antigen presentation” (University of Massachusetts, priority 1996, dated 2004).

Non-standard residues stand in square brackets, D forms with d. Cit = NC(=O)NCCC[C@H](N)C(=O)O; Orn = NCCC[C@H](N)C(=O)O

With “Ac-LRM M LPK-NH2 (Ac-LRMMLPK-NH2) [AE220]”, the “Activity in antigenic peptide prepulse assay, E^d (baseline = 1.0)” value (shortened to “Activity … (baseline = 1.0)”) under setting [1] amounted to 0.73.

For Ac-LRMKLP k-NH2 [AE166], the “Activity in antigenic peptide prepulse assay, E^d (baseline = 1.00)” value (shortened to “Activity … (baseline = 1.00)”) came out at 0.11 under setting [2] and 0.65 under setting [3].

Consider Ac-YAMKLPKSAK-NH2 [AE121], for which the “Activity … (baseline = 1.00)” value under setting [4] is on record as 0.53.

For the substance “Ac-LRMKLP N-NH2 (Ac-LRMKLPN-NH2) [AE246]”, under setting [1], the “Activity … (baseline = 1.0)” value was 0.69.

With Ac-LRNKNPF-NH2 [AE348], the “Activity … (baseline = 1.00)” value under setting [5] turned out to be 0.39.

Regarding Ac-L r MKLPK-NH2 [AE161], the “Activity … (baseline = 1.00)” value under setting [2] is 0.30.

For the substance Ac-LRMKLP[Cit]-NH2 [AE241], the “Activity … (baseline = 1.0)” value under setting [1] came to 0.70.

Turning to Ac-YRMKLP-NH2 [AE115], the “Activity in antigenic peptide prepulse assay, E^d (baseline without AE peptide = 1.00)” value (Table 19, prepulse 12 μM HEL106-116, supernatant 1:4) is listed as 0.49.

Regarding Ac-LR (mL) KLPK-NH2 [AE302], the “Activity … (baseline = 1.00)” value under setting [3] stood at 0.82.

As for Ac-LRLKYPK-NH2 [AE301], the “Activity … (baseline = 1.00)” value under setting [3] came out at 0.48 and the “Activity … (baseline = 1.00)” value under setting [5] is given as 0.66. For the same substance, the “Activity … (baseline = 1.0)” value under setting [1] is 0.34.

Regarding “Ac-LR L KLPK-NH2 (Ac-LRLKLPK-NH2; not fully specified; printed as Ac-LR L KLPK-NH2) [AE206]”, the “Activity … (baseline = 1.00)” value came to 0.52 under setting [3] and 0.18 under setting [5]. Moreover, the “Activity … (baseline = 1.0)” value under setting [1] came to 0.38.

For Ac-Y L MKLPKSAK-NH2 [AE142], the “Activity … (baseline = 1.00)” value under setting [4] is given as 0.86.

Regarding Ac-LRLKWPK-NH2 [AE309], the “Activity … (baseline = 1.00)” value is, setting by setting: under setting [3], 0.44; under setting [5], 0.48. In addition, under setting [1], the “Activity … (baseline = 1.0)” value is on record as 0.25.

In the case of Ac-LRM k LPK-NH2 [AE163], the “Activity … (baseline = 1.00)” value under setting [2] came out at 0.39.

On to Ac-LR (mL) KyPk-NH2 [AE306], for which the “Activity … (baseline = 1.00)” value under setting [3] stood at 0.68.

Regarding Ac-Y[Orn]MKLPKSAK-NH2 [AE130], the “Activity … (baseline = 1.00)” value under setting [4] was 0.79.

Take Ac-Y D MKLPKSAK-NH2 [AE135]: the “Activity … (baseline = 1.00)” value under setting [4] came out at 0.70.

On to Ac-LRLKyPK-NH2 [AE308], for which the “Activity … (baseline = 1.00)” value under setting [3] amounted to 0.93.

Regarding Ac-Y E MKLPKSAK-NH2 [AE136], the “Activity … (baseline = 1.00)” value under setting [4] worked out at 0.54.

In the case of Ac-Y F MKLPKSAK-NH2 [AE139], the “Activity … (baseline = 1.00)” value under setting [4] was 0.67.

On to Ac-l RMKLPK-NH2 [AE160], for which the “Activity … (baseline = 1.00)” value under setting [2] was found to be 0.40.

For the substance “Ac-LRMK N PK-NH2 (Ac-LRMKNPK-NH2) [AE232]”, the “Activity … (baseline = 1.00)” value under setting [5] came out at 0.44.
